Reference: patent publication US10829520B2, “Beta-hairpin peptidomimetics” (POLYPHOR AG, priority 2015, dated 2020)
Where a SMILES comes first, the peptide text is derived from it. Bridges are numbered along the chain shown (N, C = ends). Roman numbers before positions name the chains, in order. [ ]: non-standard residue; d: D form. NMeW = CN[C@@H](Cc1c[nH]c2ccccc12)C(=O)O; Hyp = O=C(O)[C@@H]1C[C@@H](O)CN1; Tle = CC(C)(C)[C@H](N)C(=O)O; dDab = NCC[C@@H](N)C(=O)O; Nle = CCCC[C@H](N)C(=O)O; Orn = NCCC[C@H](N)C(=O)O; Dab = NCC[C@H](N)C(=O)O; dAze = O=C(O)[C@H]1CCN1; Aib = CC(C)(N)C(=O)O; Sar = CNCC(=O)O

Assays:
Type in all cases: cell-based
[1] = tested on: Acinetobacter baumannii 872842; details: 872842
[2] = tested on: Acinetobacter baumannii DSM 30008; details: DSM 30008
How it was run: (§1)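 Minimal inhibitory concentrations were recorded in μg/mL after the strains grew 18-20 hours at 35° C with two-fold serial peptide dilutions. The medium was Mueller-Hinton II (cation-adjusted) with 0.002% Polysorbate 80, and the inoculum was about 10^6 CFU/mL.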

Escherichia coli 926415 = details: 926415
[3] = tested on: Escherichia coli ATCC 25922; details: ATCC 25922
How it was run: as §1

[4] = tested on: Klebsiella pneumoniae 968733; details: 968733
[5] = tested on: Klebsiella pneumoniae SSI #3010; details: SSI #3010
How it was run: as §1

[6] = tested on: Pseudomonas aeruginosa ATCC 27853; details: ATCC 27853
How it was run: as §1

[7] = tested on: human red blood cells (hRBC); test: Hemolysis of human red blood cells; details: red cells of human, 1 h
How it was run: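 hRBC washed 3× PBS; 20% v/v, ~0.9×10^9 cells/mL final. Peptide 100 μg/mL, 1 h, 37° C., 300 rpm. Spin, supernatant diluted 8×, OD540. 0% = PBS + 0.001% acetic acid; 100% = 2.5% Triton X-100. % hemolysis = OD540 peptide/OD540 full lysis × 100.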

SMILES | Acinetobacter baumannii 872842 MIC [1] [µg/mL] | Acinetobacter baumannii DSM 30008 MIC [2] [µg/mL] | Escherichia coli 926415 MIC (Escherichia coli 926415) [µg/mL] | Escherichia coli ATCC 25922 MIC [3] [µg/mL] | Klebsiella pneumoniae 968733 MIC [4] [µg/mL] | Klebsiella pneumoniae SSI #3010 MIC [5] [µg/mL] | Pseudomonas aeruginosa ATCC 27853 MIC [6] [µg/mL] | Hemolysis at 100 μg/mL [7]; 100 [%] | Hemolysis at 100 μg/mL ([7]; 100 μg/mL) [%]
CC(C)C[C@@H]1NC(=O)[C@@H](CC(C)C)NC(=O)[C@H](CCN)NC(=O)[C@@H](NC(=O)[C@H](CCN)NC(=O)[C@@H](NC(=O)[C@H](CCN)NC(=O)CC[C@@H]2NC(=O)[C@H](CCN)NC(=O)[C@H](Cc3ccc(O)cc3)NC(=O)[C@H]([C@@H](C)O)NC(=O)[C@H](C(C)C)NC(=O)[C@@H]3CCCN3C(=O)[C@H]3CCN3C(=O)[C@H](CO)NC(=O)[C@H](C)NC(=O)[C@H](C(C)(C)C)NC(=O)[C@H](CCN)NC(=O)[C@H](Cc3c[nH]c4ccccc34)NC(=O)[C@H](CCN)NC(=O)[C@@H](CCN)NC2=O)[C@@H](C)O)CCNC(=O)[C@H]([C@@H](C)O)NC(=O)[C@H](CCN)NC(=O)[C@H](CCN)NC1=O [Ex. 82] (I: cyclo(AS[dAze]PVTY[Dab]E[dDab][Dab]W[Dab][Tle]) / II: [Dab]T[Dab][Dab][Dab][dL]L[Dab][Dab]T; amide I:9-II:N; lactam II:4-II:C) | 0.5 | 1 | 0.5 | 0.5 | 0.5 | 0.5 | 0.5 | <1 | 
CCCC[C@@H]1NC(=O)[C@@H]2CCCN2C(=O)[C@H]2CCCN2C(=O)[C@H](CO)NC(=O)[C@H](C)NC(=O)[C@H](C(C)(C)C)NC(=O)[C@@H](NC(=O)[C@H](Cc2c[nH]c3ccccc23)NC(C)=O)CCC(=O)NCC[C@@H](C(=O)N[C@@H](CCN)C(=O)N[C@H](C(=O)N[C@@H](CCN)C(=O)N[C@H]2CCNC(=O)[C@H]([C@@H](C)O)NC(=O)[C@H](CCN)NC(=O)[C@H](CCN)NC(=O)[C@H](CC(C)C)NC(=O)[C@@H](Cc3ccccc3)NC(=O)[C@H](CCN)NC2=O)[C@@H](C)O)NC(=O)[C@H](Cc2ccc(O)cc2)NC(=O)[C@H](CO)NC1=O [Ex. 14] (Ac-WE[Tle]AS[dP]P[Nle]SY[Dab][Dab]T[Dab][Dab][Dab][dF]L[Dab][Dab]T; lactam 2-11, 15-C) | 1 | 0.5 | 4 | 0.5 | 8 | 1 | 1 | <1 | 
CCCC[C@@H]1NC(=O)[C@@H]2CCCN2C(=O)[C@H]2CCCN2C(=O)[C@H](CO)NC(=O)[C@H](C)NC(=O)[C@H](C(C)(C)C)NC(=O)[C@@H](NC(=O)[C@H](Cc2c[nH]c3ccccc23)NC(C)=O)CSSC[C@@H](C(=O)N[C@@H](CCN)C(=O)N[C@H](C(=O)N[C@@H](CCN)C(=O)NCC(=O)N[C@H]2CCNC(=O)[C@H]([C@@H](C)O)NC(=O)[C@H](CCN)NC(=O)[C@H](CCN)NC(=O)[C@H](CC(C)C)NC(=O)[C@@H](Cc3ccccc3)NC(=O)[C@H](CCN)NC2=O)[C@@H](C)O)NC(=O)[C@H](Cc2ccc(O)cc2)NC(=O)[C@H](CO)NC1=O [Ex. 33] (Ac-WC[Tle]AS[dP]P[Nle]SYC[Dab]T[Dab]G[Dab][Dab][dF]L[Dab][Dab]T; disulfide 2-11; lactam 16-C) | 0.25 | 0.125 | 1 | 0.25 | 0.75 | 0.5 | 0.5 |  | 1
CN[C@@H](Cc1c[nH]c2ccccc12)C(=O)N[C@H]1CSSC[C@@H](C(=O)N(C)CC(=O)N[C@@H](CCN)C(=O)N[C@H](C(=O)N[C@@H](CCN)C(=O)N[C@H]2CCNC(=O)[C@H]([C@@H](C)O)NC(=O)[C@H](CCN)NC(=O)[C@H](CCN)NC(=O)[C@H](CC(C)C)NC(=O)[C@@H](CC(C)C)NC(=O)[C@H](CCN)NC2=O)[C@@H](C)O)NC(=O)[C@H](Cc2ccc(O)cc2)NC(=O)[C@H]([C@@H](C)O)NC(=O)[C@H](C(C)C)NC(=O)[C@@H]2C[C@@H](O)CN2C(=O)[C@@H](C)NC(=O)[C@H]([C@@H](C)O)NC(=O)[C@H](C)NC(=O)[C@H](C(C)C)NC1=O [Ex. 175] (H-[NMeW]CVAT[dA][Hyp]VTYC[Sar][Dab]T[Dab][Dab][Dab][dL]L[Dab][Dab]T; disulfide 2-11; lactam 16-C) | 1 | 0.0625 | 0.5 | 0.0625 | 0.5 | 0.0625 | 0.25 |  | <1
CCCC[C@@H]1NC(=O)[C@@H]2CCCN2C(=O)[C@H]2CCCN2C(=O)[C@H](CO)NC(=O)[C@H](C)NC(=O)[C@H](C(C)(C)C)NC(=O)[C@@H](NC(=O)[C@H](Cc2c[nH]c3ccccc23)NC(C)=O)CSSC[C@@H](C(=O)NC(C)(C)C(=O)N[C@@H](CCN)C(=O)N[C@H](C(=O)N[C@@H](CCN)C(=O)N[C@H]2CCNC(=O)[C@H]([C@@H](C)O)NC(=O)[C@H](CCN)NC(=O)[C@H](CCN)NC(=O)[C@H](CC(C)C)NC(=O)[C@@H](Cc3ccccc3)NC(=O)[C@H](CCN)NC2=O)[C@@H](C)O)NC(=O)[C@H](Cc2ccc(O)cc2)NC(=O)[C@H](CO)NC1=O [Ex. 30] (Ac-WC[Tle]AS[dP]P[Nle]SYC[Aib][Dab]T[Dab][Dab][Dab][dF]L[Dab][Dab]T; disulfide 2-11; lactam 16-C) | 1 | 0.25 | 1 | 0.25 | 0.25 | 0.25 | 0.5 |  | <1
CCCC[C@@H]1NC(=O)[C@@H]2CCCN2C(=O)[C@H]2CCCN2C(=O)[C@H](CO)NC(=O)[C@H](C)NC(=O)[C@H](C(C)(C)C)NC(=O)[C@H](CCN)NC(=O)[C@H](Cc2c[nH]c3ccccc23)NC(=O)[C@H](CCN)NC(=O)[C@H](CCC(=O)N[C@@H](CCN)C(=O)N[C@H](CCN)C(=O)N[C@H]2CCNC(=O)[C@H]([C@@H](C)O)NC(=O)[C@H](CCN)NC(=O)[C@H](CCN)NC(=O)[C@H](CC(C)C)NC(=O)[C@@H](CC(C)C)NC(=O)[C@H](CCN)NC2=O)NC(=O)[C@H](CCCN)NC(=O)[C@H](CCN)NC(=O)[C@H](Cc2ccc(O)cc2)NC(=O)[C@H](CO)NC1=O [Ex. 78] (I: cyclo([Nle]SY[Dab][Orn]E[Dab]W[Dab][Tle]AS[dP]P) / II: [Dab][dDab][Dab][Dab][dL]L[Dab][Dab]T; amide I:6-II:N; lactam II:3-II:C) | 1 | 0.5 | 0.5 | 0.5 | 0.5 | 0.5 | 0.25 | 1 | 
CC(C)C[C@@H]1NC(=O)[C@@H](CC(C)C)NC(=O)[C@H](CCN)NC(=O)[C@@H](NC(=O)[C@H](CCN)NC(=O)CN(C)C(=O)C[C@@H]2NC(=O)[C@H](CCCN)NC(=O)[C@H](CCN)NC(=O)[C@H](Cc3ccc(O)cc3)NC(=O)[C@H](CO)NC(=O)[C@H](CC(C)C)NC(=O)[C@@H]3CCCN3C(=O)[C@H]3CCCN3C(=O)[C@H](Cc3ccc(O)cc3)NC(=O)[C@H](C)NC(=O)[C@H](C(C)(C)C)NC(=O)[C@H](CCN)NC(=O)[C@H](Cc3c[nH]c4ccccc34)NC(=O)[C@H](CCN)NC2=O)CCNC(=O)[C@H]([C@@H](C)O)NC(=O)[C@H](CCN)NC(=O)[C@H](CCN)NC1=O [Ex. 77] (I: cyclo(LSY[Dab][Orn]D[Dab]W[Dab][Tle]AY[dP]P) / II: [Sar][Dab][Dab][Dab][dL]L[Dab][Dab]T; amide I:6-II:N; lactam II:3-II:C) | 2 | 1 | 0.5 | 1 | 2 | 1 | 1 | <1 | 
CNCC(=O)N[C@@H](Cc1c[nH]c2ccccc12)C(=O)N[C@H]1CSSC[C@@H](C(=O)N(C)CC(=O)N[C@@H](CCN)C(=O)N[C@H](C(=O)N[C@@H](CCN)C(=O)N[C@H]2CCNC(=O)[C@H]([C@@H](C)O)NC(=O)[C@H](CCNC(=O)[C@@H](N)CCCNC(=N)N)NC(=O)[C@H](CCN)NC(=O)[C@H](CC(C)C)NC(=O)[C@@H](CC(C)C)NC(=O)[C@H](CCN)NC2=O)[C@@H](C)O)NC(=O)[C@H](Cc2ccc(O)cc2)NC(=O)[C@H](CO)NC(=O)[C@H](CC(C)C)NC(=O)[C@@H]2CCCN2C(=O)[C@H]2CCCN2C(=O)[C@H](CO)NC(=O)[C@H](C)NC(=O)[C@H](C(C)C)NC1=O [Ex. 187] (H-[Sar]WCVAS[dP]PLSYC[Sar][Dab]T[Dab][Dab][Dab][dL]L[Dab][Dab](Arg)T; disulfide 3-12; lactam 17-C) | 1 | 0.125 | 2 | 0.125 | 1 | 0.125 | 1 |  | <1
